Source: ChEMBL document CHEMBL1201862, “PubChem BioAssay data set” (2004)
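Dose response: 5 concentrations. Exposure: 48 h. Format: 96-well plates. Endpoint: linear interpolation; highest concentration if not reached. Abbreviation: GI50, concentration required for 50% inhibition of growth.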 Activity calls are given as the source filed them. No stated cut-off is given here; in the data, active = GI50 up to about 1.1 µM and inactive = higher.

How the values were obtained:
Assay in all cases: NCI-60 cell line screen, 48 h
[1] = tested on: PC-3
[2] = tested on: HCC 2998
[3] = tested on: RXF 393
[4] = tested on: MDA-N
[5] = tested on: HOP-62
[6] = tested on: NCI/ADR-RES
[7] = tested on: OVCAR-3
[8] = tested on: UO-31
[9] = tested on: A549
[10] = tested on: SW-620
[11] = tested on: U-251
[12] = tested on: NCI-H23
[13] = tested on: CCRF-CEM
[14] = tested on: SNB-19
[15] = tested on: SK-OV-3
[16] = tested on: BT-549
[17] = tested on: MDA-MB-435
[18] = tested on: LOX IMVI
[19] = tested on: SN12C
[20] = tested on: UACC-257
[21] = tested on: RPMI-8226
[22] = tested on: SF-295
[23] = tested on: Hs-578T
[24] = tested on: K562
[25] = tested on: A498
[26] = tested on: SF-539
[27] = tested on: 786-0
[28] = tested on: DU-145
[29] = tested on: SK-MEL-5
[30] = tested on: HCT-116
[31] = tested on: SF-268
[32] = tested on: MCF7
[33] = tested on: ACHN
[34] = tested on: M14
[35] = tested on: HCT-15
[36] = tested on: SK-MEL-28
[37] = tested on: MDA-MB-231
[38] = tested on: MOLT-4
[39] = tested on: T47D
[40] = tested on: NCI-H522
[41] = tested on: OVCAR-5
[42] = tested on: EKVX
[43] = tested on: HL-60
[44] = tested on: KM12
[45] = tested on: IGROV-1
[46] = tested on: SK-MEL-2
[47] = tested on: OVCAR-8
[48] = tested on: SR
[49] = tested on: OVCAR-4
[50] = tested on: HT-29
[51] = tested on: COLO 205
[52] = tested on: Malme-3M
[53] = tested on: UACC-62
[54] = tested on: NCI-H460
[55] = tested on: TK-10
[56] = tested on: CAKI-1
[57] = tested on: SNB-75
[58] = tested on: HOP-92
[59] = tested on: NCI-H226

Measured: GI50

COC1=C(OC)C(=O)C(Cc2c(-c3ccccc3)nc3sc(Cl)cn23)=C(C)C1=O
inactive: [1] 16.6 µM | [2] 24.4 µM | [3] 17.1 µM | [4] 16.3 µM | [5] 19.5 µM | [6] 17.9 µM | [7] 16.3 µM | [8] 15.8 µM | [9] 21.7 µM | [10] 23.3 µM | [11] 18.5 µM | [12] 17.8 µM | [13] 13.7 µM | [14] 18.2 µM | [15] 18.5 µM | [16] 15.7 µM | [17] 16.5 µM | [18] 23.7 µM | [19] 16.4 µM | [20] 16 µM | [21] 13.5 µM | [22] 17 µM | [23] 18.1 µM | [24] 23.9 µM | [25] 20.2 µM | [26] 17.1 µM | [27] 19.6 µM | [28] 20 µM | [29] 15.2 µM | [30] 16.4 µM | [31] 18.8 µM | [32] 20.3 µM | [33] 16 µM | [34] 15.8 µM | [36] 13.8 µM | [37] 11 µM | [38] 1.96 µM | [39] 23.4 µM | [40] 13.6 µM | [41] 28.2 µM | [42] 20.7 µM | [43] 7.91 µM | [44] 17 µM | [45] 14.9 µM | [46] 15.6 µM | [47] 15.2 µM | [48] 22.9 µM | [49] 3.61 µM | [50] 20.1 µM | [51] 18.7 µM | [52] 16.5 µM | [53] 11.9 µM | [54] 16 µM | [55] 20 µM | [56] 21 µM
14.5 µM: [35]

O=S1(=O)N=C(SCc2c[nH]c3ccccc23)N(c2ccccc2)c2ccncc21
inactive: [57] 21.5 µM | [1] 66.7 µM | [2] > 100 µM | [4] > 100 µM | [5] > 100 µM | [6] > 100 µM | [7] > 100 µM | [8] 18.5 µM | [9] > 100 µM | [10] > 100 µM | [11] 87.5 µM | [12] > 100 µM | [13] 41.4 µM | [14] > 100 µM | [15] > 100 µM | [16] 59 µM | [58] 53.7 µM | [17] > 100 µM | [18] 35.4 µM | [19] 74.6 µM | [59] 97.7 µM | [20] > 100 µM | [22] > 100 µM | [23] > 100 µM | [24] > 100 µM | [25] 27 µM | [26] 22.8 µM | [27] 25.1 µM | [28] 35.2 µM | [29] > 100 µM | [30] > 100 µM | [31] 50.9 µM | [32] 42.5 µM | [33] 65.3 µM | [34] > 100 µM | [36] > 100 µM | [37] > 100 µM | [38] 46.7 µM | [39] 21.3 µM | [40] 37.5 µM | [41] 94.2 µM | [42] > 100 µM | [43] > 100 µM | [44] > 100 µM | [46] > 100 µM | [47] > 100 µM | [48] 34.2 µM | [49] > 100 µM | [50] > 100 µM | [51] > 100 µM | [52] > 100 µM | [53] > 100 µM | [54] > 100 µM | [55] 35.6 µM | [56] 67.5 µM
> 100 µM: [35]
